Data reported in ChEMBL document CHEMBL1156829 (Proc Natl Acad Sci U S A, 2008).

What was measured:
[1] = system: Plasmodium falciparum; experiment: NOVARTIS: Inhibition of Plasmodium falciparum 3D7 (drug-susceptible) proliferation in erythrocyte-based infection assay; assay type: functional, organism-based; details: Plasmodium falciparum, 3D7
[2] = system: Plasmodium falciparum; experiment: NOVARTIS: Inhibition of Plasmodium falciparum W2 (drug-resistant) proliferation in erythrocyte-based infection assay; assay type: functional, organism-based; details: Plasmodium falciparum, W2; read-out: EC50
[3] = NOVARTIS: Cytotoxicity against human hepatocellular carcinoma cell line (Huh7); assay type: toxicity, cell-based, Huh-7; details: Huh7 cells (hepatocellular carcinoma cell line)

| SMILES | EC50 [1] | EC50 [2] | CC50 [3] |
| --- | --- | --- | --- |
| COc1ccc(-c2nc(NC(=O)CS(=O)(=O)c3ccc(F)cc3)sc2C)cc1 | 0.212 µM | 0.56 µM | 44.1 µM |
| CCOc1ccc(Nc2cc(C)nc(Nc3ccc(OCC)cc3)n2)cc1 | 0.104 µM | 0.124 µM | 9.85 µM |
| O=C(COC(c1cccs1)c1cccnc1Cl)N1CCN(CCO)CC1 (stereo unspecified) | > 12.5 µM | 1.29 µM | > 100 µM |
| COc1cc(C(C(=O)NCc2ccccc2)N(C(=O)c2snc(C(N)=O)c2N)c2ccc(C(C)C)cc2)cc(OC)c1OC (stereo unspecified) | 2.45 µM | 1.29 µM | > 100 µM |
| Cc1cc(Nc2ccccc2)nc(Nc2ccccc2)n1 | 0.259 µM | 0.248 µM | 20 µM |
| COc1ccc2nc(Nc3nc(-c4ccccn4)cs3)sc2c1 | 0.0918 µM | 0.0935 µM | 7.31 µM |
| COc1ccc(-c2c[n+](CC(=O)c3ccccc3Cl)c3n2CCC3)cc1 | 1.07 µM | 1.29 µM | > 100 µM |
| CCCOC(=O)C1=C(C)NC2=C(C(=O)CC(c3ccc(OC)c(OC)c3)C2)C1c1ccc(O)c(OCC)c1 (stereo unspecified) | 2.4 µM | 1.28 µM | > 100 µM |
| COc1ccc(C(=O)C[N+]2=C(C)c3ccc(C)n3CC2)cc1 | 1.17 µM | 1.29 µM | > 100 µM |
| Cc1cc(I)ccc1NC(=O)CNC(=O)OCc1ccccc1 | > 12.5 µM | 1.28 µM | > 100 µM |
| O=C(NCc1ccc(Cl)cc1)C(=O)NCc1ccccn1 | 1.32 µM | 0.105 µM | 8.24 µM |
| Oc1ccc(Br)cc1CN1CCN(c2ccccn2)CC1 | 3.17 µM | 0.438 µM | 34.6 µM |
| CC(=O)N(C1=C(N(C)C)C(=O)c2ccccc2C1=O)c1ccc(Cl)cc1 | 0.0314 µM | 0.0691 µM | 5.46 µM |
| CCc1ccccc1N(CC(=O)NC1CCCCC1)C(=O)CCC(=O)Nc1ccccn1 | 0.835 µM | 1.27 µM | > 100 µM |
| O=C(NNC(=O)c1csnn1)c1ccc(Cl)cc1 | 0.781 µM | 1.29 µM | > 100 µM |
| O=C(Nc1ccc(CC2=NCCCN2)cc1)c1ccc(C(=O)Nc2ccc(CC3=NCCCN3)cc2)cc1 | 0.127 µM | 0.129 µM | > 10 µM |
| CCOC(=O)C1=CN(c2cc(C)ccc2C)C=C(C(=O)OCC)C1c1ccccc1OC | 4.43 µM | 1.28 µM | > 100 µM |
| Nc1ccc2nc3ccc(N)cc3[s+]c2c1 | 0.0857 µM | 0.143 µM | 11.6 µM |
| CCOc1ccc(C(=O)C(C)[n+]2cc(-c3ccc(Cl)cc3)n3c2CCC3)cc1 (stereo unspecified) | 1.5 µM | 0.976 µM | > 78.3 µM |
| O=c1[nH]c(SCC(O)c2ccc(Cl)c(Cl)c2)nc2sc3ccccc3c12 (stereo unspecified) | 0.663 µM | 0.124 µM | > 10 µM |
| CN1CCN=C1c1ccc(NC(=O)Nc2ccc(NC(=O)Nc3ccc(C4=NCCN4C)cc3)cc2)cc1 | 0.158 µM | 0.124 µM | > 10 µM |
| Cc1ccc(-c2cc(N3CCCC3CO)n3nccc3n2)cc1 (stereo unspecified) | 1.14 µM | 1.25 µM | > 100 µM |
| COc1ccc(CNCCN2CCN(c3ccc(C)cc3)C[C@@H]2c2ccccc2)cc1 | 0.909 µM | 0.125 µM | > 10 µM |
| COc1ccc2c(c1)-c1c(ssc1=S)C(C)(C)N2C(=O)c1cccc(Cl)c1 | 1.09 µM | > 1.25 µM | > 100 µM |
| O=C1CSC2=NCN(c3cccc(Cl)c3)CN12 | > 12.5 µM | 1.26 µM | > 100 µM |
| C1=C(c2ccccc2)CCN(c2ncnc3c2nc2n3CCCCC2)C1 | 1.29 µM | 1.08 µM | > 85.8 µM |

| SMILES | EC50 [1] | EC50 [2] | CC50 [3] |
| --- | --- | --- | --- |
| CCN(CC)CCCNCC(=O)N1c2ccccc2Sc2ccccc21 | > 12.5 µM | 1.25 µM | > 100 µM |
| Cc1ccc2nc(Nc3ncc4c(n3)CC(C)(C)CC4=O)nc(C)c2c1 | > 12.5 µM | 1.25 µM | > 100 µM |
| O=C(Nc1ccc2oc(-c3ccccc3F)nc2c1)c1ccc([N+](=O)[O-])o1 | > 12.5 µM | 1.26 µM | > 100 µM |
| Cc1ccc(Nc2cc(C)nc(NCc3ccccc3)n2)cc1 | 0.112 µM | 0.132 µM | 10.5 µM |
| Cc1ccc(-c2noc(C3CCN(C(=O)Nc4ccc(C#N)cc4)CC3)n2)o1 | 1.3 µM | 1.26 µM | > 100 µM |
| CCOC(=O)C1=C(C)NC2=C(C(=O)CC(C)(C)C2)C1c1ccccn1 (stereo unspecified) | > 12.5 µM | 1.26 µM | > 100 µM |
| Clc1cccc(Nc2nc(NCc3ccco3)c3ccccc3n2)c1 | 0.112 µM | 0.203 µM | 16.1 µM |
| COc1cccc(NC(=O)c2sc3ncn(CC(=O)N4CCN(c5ccccn5)CC4)c(=O)c3c2C)c1 | > 12.5 µM | 1.24 µM | > 100 µM |
| COc1ccc(N)cc1NC(=O)c1ccc(Cl)cc1Cl | > 0.89 µM | 0.0879 µM | 6.99 µM |
| COc1ccc([N+](=O)[O-])cc1C=NNc1nc(Nc2ccc([N+](=O)[O-])cc2)nc(N2CCN(C)CC2)n1 | 0.859 µM | 0.388 µM | 30.7 µM |
| CCCCOc1ccc(C(=O)Oc2ccccc2-c2nc3cc(C)ccn3c2NC(C)(C)CC(C)(C)C)cc1 | 0.804 µM | 0.13 µM | > 10 µM |
| COc1cccc2c(C)nc(N=C(N)N)nc12 | 0.291 µM | 0.688 µM | 53.5 µM |
| COC(=O)CNC(c1ccccc1)c1cc(Br)ccc1NC(=O)C(Cc1ccccc1)NC(=O)OCc1ccccc1 (stereo unspecified) | 4.08 µM | 1.28 µM | > 100 µM |
| CC(Sc1nnc2c3ccccc3n(Cc3ccccc3)c2n1)C(=O)N1CCN(C(=O)C(c2ccccc2)c2ccccc2)C(C)C1 (stereo unspecified) | 0.914 µM | 0.127 µM | > 10 µM |
| CCOC(=O)c1c(C)[nH]c2c1cc(O)c1ccccc12 | 0.0986 µM | 0.126 µM | > 10 µM |
| CC(C)(C)c1ccc(C(=O)N2CCCn3cccc3C2c2ccc(C(C)(C)C)cc2)cc1 (stereo unspecified) | 1.56 µM | 1.29 µM | > 100 µM |
| CC[N+]1(CCOc2ccc(C34CC5CC(CC(C5)C3)C4)cc2)CCCCC1 | 1.01 µM | 0.746 µM | 58.2 µM |
| CCOC(=O)c1cnc2ccc(OC)cc2c1Cl | 2.76 µM | 1.25 µM | > 100 µM |
| Cc1nc(NC(=N)N)nc2ccccc12 | 0.887 µM | 0.858 µM | 66.4 µM |
| CCC(C)NC(=O)c1cc(NC(=O)c2cccc(Cl)c2)ccc1N1CCCCC1 (stereo unspecified) | > 1.61 µM | 0.194 µM | 15.4 µM |
| CCOC(=O)c1ccc(NC(=O)c2ccc(S(=O)(=O)N3CC(C)CC(C)C3)cc2)cc1 (stereo unspecified) | 0.666 µM | 1.24 µM | > 100 µM |
| CCCn1c(=N)c(C(=O)NC2CCCCC2)cc2c(=O)n3cccc(C)c3nc21 | 0.46 µM | 1.29 µM | > 100 µM |
| COc1cccc(Cn2c(C)nc3cc(NC(=O)Nc4ccccc4)c(C)nc32)c1 | > 0.443 µM | 0.163 µM | > 13.1 µM |
| CC(=NNC(=N)N)c1ccc(C)cc1 | 2.04 µM | 0.25 µM | 19.3 µM |
| CN(C)c1ccc(C=NNc2ncnc3nc[nH]c23)cc1 | 0.167 µM | 0.138 µM | 11 µM |
| COc1ccc(-c2noc(N3CCc4ccccc4C3)n2)cc1 | 0.2 µM | 0.125 µM | > 10 µM |
